Earlier results, collected in patent publication EP0331593A1, “Process for the preparation of hydroxybenzaldehydes by hydrocarbonylation” (RHONE-POULENC CHIMIE, priority 1988, dated 1989).
Read-outs that look alike come from different tables or passages of the source.

Experiments:
[1] = in water, generally 25°C
[2] = phosphine

Row | SMILES | pKa * (pka del'acide conjugué de l'amine tertiaire) ([1]; Tableau I) | pKa * (pka de l'acide conjugé de l'amine tertiaire) ([1]; Tableau II) | pKa * (pka del'acide conjugué de l'amine tertiaire) ([1]; Tableau III) | pKa * (pka de l'acide conjugé de l'amine tertiaire) ([1]; Tableau IV) | pKa à 25°C [2]
1 | Cc1ccnc(C)c1 [Diméthyl-2,4 Pyridine] | 6,99 | 6,99 | 6,99 | 6,99 | –
2 | Cc1cccc(C)n1 [Diméthyl-2,6 Pyridine] | 6,73 | 6,73 | – | – | –
3 | Cc1ccncc1C [Diméthyl-3,4 Pyridine] | 6,57 | 6,57 | – | – | –
4 | Cc1ccncc1 [Gamma Picoline] | 6,02 | – | – | – | –
5 | c1cnccn1 [Pyrazine] | 0,65 | – | 0,65 | 0,65 | –
6 | c1ccc(P(c2ccccc2)c2ccccc2)cc1 [triphénylphosphine] | – | – | – | – | 2,73
7 | Cc1cccc(P(c2cccc(C)c2)c2cccc(C)c2)c1 [tris(méthyl-3 phényl)phosphine] | – | – | – | – | 3,3
